# According to US4322340A, “Pharmacologically active peptides” (Eli Lilly and Company, priority 1980, dated 1982):
# Counter-ions that a name gives are not always drawn.
# How the values were obtained:
# mouse [1] = assay: mouse locomotor activity test (physical dependence liability); format: in vivo; details: group of ten mice
# Experimental: A high correlation has been established between the degree of physical dependence liability of a compound and its ability to elicit mouse locomotor activity; Cf. Goldstein et al., The Journal of Pharmacology and Experimental Therapeutics 169, 175-184 (1969); Rethy et al., The Journal of Pharmacology and Experimental Therapeutics 176, 472-479 (1971); and Brase et al., The Journal of Pharmacology and Experimental Therapeutics 201(2), 368-374 (1977).
# Mouse locomotor activity is measured using cylindrical cages of wire mesh 2 inches high and 11 inches in diameter. Six cages are enclosed in a ventilated, sound-attenuated chamber having uniform lighting. A light beam is passed through the center of the cage to a photocell on the opposite side. Two mice are placed in each cage for one hour to become acclimated to the surroundings. Five pairs of mice then are injected subcutaneously with a predetermined dose of the test compound, the remaining pair receiving saline carrier free of test compound. The mice are returned to their respective cages for three hours. The number of counts per each 15 minute period as well as the total number over the three hour period are recorded. Each interruption of the light beam constitutes a count.
# The following Table II reflects a mean of the total counts for each group of ten mice tested using a particular compound and dose level.
# mouse [2] = assay: mouse hot plate test (analgesic activity); format: in vivo; details: subcutaneous injection, tested 15 minutes after administration, hot plate 52° C.
# Experimental: In this test, an upright acrylic cylinder comprising, as its base, a hot plate surface which is maintained at 52° C. is used. A mouse is given, by subcutaneous injection, a predetermined amount of test compound dissolved or suspended in a suitable carrier, and, 15 minutes after administration of the test compound, the mouse is placed on the hot plate surface. The latency in seconds until the mouse jumps from the hot plate surface is measured. […] This must occur in a dose range which produces no motor incoordination or incapacitation. The following Table I records ED50 results obtained from this test. By the term "ED50 " is meant that dose which produces analgesia in 50% of the mice tested. Analgesia is defined as a response latency in the presence of test compound that is equal to or greater than the control response latency plus two standard deviations. The percent analgesia data are converted to probits, and the ED50 is calculated by regression analysis of the dose-response data. Each dose response curve must have at least four points, and each point is determined using data from a minimum of ten treated mice and ten control mice.
# [3] = Dose 128 mg./kg. subcutaneously
Compound,"mean of the total counts, locomotor activity over three hours (mouse [1]; Dose 4 mg./kg. subcutaneously) [counts]","mean of the total counts, locomotor activity over three hours (mouse [1]; Dose 8 mg./kg. subcutaneously) [counts]","mean of the total counts, locomotor activity over three hours (mouse [1]; Dose 16 mg./kg. subcutaneously) [counts]","mean of the total counts, locomotor activity over three hours (mouse [1]; Dose 32 mg./kg. subcutaneously) [counts]","Analgesic Activity, Hot Plate Test, ED50 (mouse [2]) [µg/kg]","mean of the total counts, locomotor activity over three hours (mouse [1]; Dose 64 mg./kg. subcutaneously) [counts]","mean of the total counts, locomotor activity over three hours (mouse [1]; [3]) [counts]"
"CCN(C(=O)CNC(=O)[C@@H](C)NC(=O)[C@@H](N)Cc1ccc(O)cc1)[C@@H](Cc1ccccc1)C(N)=O [H Et H, reference compound]",704,1204,2916,3528,,,
"CCN(C(=O)CNC(=O)[C@@H](C)NC(=O)[C@H](Cc1ccc(O)cc1)NC)[C@@H](Cc1ccc(F)cc1)C(N)=O [Me Et p-F, reference compound]",431,1425,2415,2033,,,
"CCN(C(=O)CNC(=O)[C@@H](C)NC(=O)[C@@H](N)Cc1ccc(O)cc1)[C@@H](Cc1cccc(I)c1)C(N)=O [Example 7, L-Tyrosyl-D-alanyl-glycyl-L-(N-ethyl)-m-iodophenylalanine Amide, Acetate Salt]",178,174,363,852,1.9,1630,2871
"CCN(C(=O)CNC(=O)[C@@H](C)NC(=O)[C@H](Cc1ccc(O)cc1)NC)[C@@H](Cc1cccc(Cl)c1)C(N)=O [Example 6, L-(N-Methyl)tyrosyl-D-alanyl-glycyl-L-(N-ethyl)-m-chlorophenylalanine Amide, Acetate Salt]",148,304,796,1978,1.8,4477,3476
"CCN(C(=O)CNC(=O)[C@@H](C)NC(=O)[C@@H](N)Cc1ccc(O)cc1)[C@@H](Cc1cccc(Cl)c1)C(N)=O [Example 5, L-Tyrosyl-D-alanyl-glycyl-L-(N-ethyl)-m-chlorophenylalanine Amide, Acetate Salt]",125,613,819,2388,0.3,3667,2807
"L-Tyrosyl-D-alanyl-glycyl-L-(N-ethyl)-m-bromophenylalanine Amide, Acetate Salt [Example 3]",,200,512,1092,4.9,2820,
"CCN(C(=O)CNC(=O)[C@@H](C)NC(=O)[C@H](Cc1ccc(O)cc1)NC)[C@@H](Cc1cccc(Br)c1)C(N)=O [Example 2, L-(N-Methyl)tyrosyl-D-alanyl-glycyl-L-(N-ethyl)-m-bromophenylalanine Amide, Acetate Salt]",142,235,358,701,3,2523,5153
"CN[C@@H](Cc1ccc(O)cc1)C(=O)N[C@H](C)C(=O)NCC(=O)N(CC1CC1)[C@@H](Cc1cccc(Br)c1)C(N)=O [Example 1, L-(N-Methyl)tyrosyl-D-alanyl-glycyl-L-(N-cyclopropylmethyl)-m-bromophenylalanine Amide, Acetate Salt]",171,140,276,320,,1888,2159
"CCN(C(=O)CNC(=O)[C@@H](C)NC(=O)[C@H](Cc1ccc(O)cc1)NC)[C@@H](Cc1cccc(C)c1)C(N)=O [Example 4, L-(N-Methyl)tyrosyl-D-alanyl-glycyl-L-(N-ethyl)-m-methyl-phenylalanine Amide, Acetate Salt]",173,255,537,1176,3,3231,3852
